Data published in patent US4416884A, “Piperazinylbenzoheterocyclic compounds” (Otsuka Pharmaceutical Co., Ltd., priority 1978, dated 1983).
Read-outs that look alike come from different tables or passages of the source.

What was measured:
[1] = test system: Yersinia enterocolitica 0-5; experiment: antimicrobial activity, serial dilution method on agar plate; type: cell-based
[2] = test system: Aeromonas hydrophila IFO 12658; experiment: antimicrobial activity on bacteria which cause infectious diseases in fish; type: cell-based
Method: (§1) The antimicrobial activity of the following test compounds on various test organisms listed below was determined by the serial dilution method on agar plate (Heart Infusion agar produced by Difco Co.) (see CHEMOTHERAPY 22, pp. 1126-1128 (1974)), and the minimum inhibitory concentrations (mcg/ml) obtained are shown in Table 1 below.
(§2) A sample of each test organism was prepared so that the population of the organism was 1×10^8 cells/ml (O.D. 660 mμ=0.07 to 0.16) and 1×10^6 cells/ml (which was obtained by diluting the above 1×10^8 cells/ml preparation).
(§3) In the same manner as above, the antimicrobial activity of the following compounds on various test organisms which cause infectious diseases in fish was determined.

[3] = test system: Aeromonas hydrophila IFO 12981; experiment: as above; type: cell-based
Method: as §1, §2, §3

[4] = test system: Aeromonas salmonicida IFO 12659; experiment: as above; type: cell-based
Method: as §1, §2, §3

[5] = test system: Aeromonas salmonicida IFO 12718; experiment: as above; type: cell-based
Method: as §1, §2, §3

[6] = test system: Pseudomonas fluorescens IFO 12180; experiment: as above; type: cell-based
Method: as §1, §2, §3

[7] = test system: Pseudomonas fluorescens IFO 12568; experiment: as above; type: cell-based
Method: as §1, §2, §3

[8] = test system: Vibrio anguillarum IFO 12710; experiment: as above; type: cell-based
Method: as §1, §2, §3

[9] = test system: Vibrio anguillarum IFO 13266; experiment: as above; type: cell-based
Method: as §1, §2, §3

[10] = test system: Test Organism 1 (Escherichia Coli NIHJ); experiment: influence of the addition of horse serum on the MIC; type: cell-based
[11] = test system: Test Organism 2 (Escherichia Coli NIHJ JC-2 (IFO 12734)); experiment: as above; type: cell-based
[12] = test system: Test Organism 17 (Pseudomonas putida IFO 13696); experiment: as above; type: cell-based
[13] = test system: Test Organism 16 (Pseudomonas maltophilia IFO 12692); experiment: as above; type: cell-based; conditions: Stenotrophomonas maltophilia
[14] = test system: Test Organism 21 (Bacillus subtilis PCI 219); experiment: as above; type: cell-based
[15] = test system: Test Organism 27 (Streptococcus pneumoniae Type III); experiment: as above; type: cell-based
in vitro = conditions: human
Method: A 1/15 mol/l phosphate buffer was added to powder of Moni-Trol 1 (dehydrated preparation of human serum, a product of Midori Juji Co., Ltd.) to prepare a composition having the same serum protein concentration as natural human serum and this preparation was labeled "100% human serum", an aliquot of the "100% human serum" preparation was mixed with the same volume of the above buffer to prepare "50% human serum" and another aliquot was mixed with 4 times as much as its volume of the buffer to prepare "20% human serum".

[16] = Yersinia enterocolitica, 05, read-out: Minimum Inhibitory Concentration, inoculum 1 × 10^6 cells/ml
[17] = Yersinia enterocolitica, 05, read-out: Minimum Inhibitory Concentration, inoculum 1 × 10^8 cells/ml
[18] = IFO12658, inoculum 10^6, read-out: Minimum Inhibitory Concentration
[19] = IFO12658, inoculum 10^8, read-out: Minimum Inhibitory Concentration
[20] = IFO12981, inoculum 10^6, read-out: Minimum Inhibitory Concentration
[21] = IFO12981, inoculum 10^8, read-out: Minimum Inhibitory Concentration
[22] = IFO12659, inoculum 10^6, read-out: Minimum Inhibitory Concentration
[23] = IFO12659, inoculum 10^8, read-out: Minimum Inhibitory Concentration
[24] = IFO12718, inoculum 10^6, read-out: Minimum Inhibitory Concentration
[25] = IFO12718, inoculum 10^8, read-out: Minimum Inhibitory Concentration
[26] = read-out: Minimum Inhibitory Concentration, horse serum 0%, inoculum 10^6
[27] = read-out: Minimum Inhibitory Concentration, horse serum 0%, inoculum 10^8
[28] = read-out: Minimum Inhibitory Concentration, horse serum 10%, inoculum 10^6
[29] = read-out: Minimum Inhibitory Concentration, horse serum 10%, inoculum 10^8
[30] = read-out: Minimum Inhibitory Concentration, horse serum 20%, inoculum 10^6
[31] = read-out: Minimum Inhibitory Concentration, horse serum 20%, inoculum 10^8
[32] = read-out: Minimum Inhibitory Concentration, horse serum 40%, inoculum 10^6
[33] = read-out: Minimum Inhibitory Concentration, horse serum 40%, inoculum 10^8
[34] = horse serum 0%, inoculum 10^6, read-out: Minimum Inhibitory Concentration
[35] = horse serum 0%, inoculum 10^8, read-out: Minimum Inhibitory Concentration
[36] = horse serum 10%, inoculum 10^6, read-out: Minimum Inhibitory Concentration
[37] = horse serum 10%, inoculum 10^8, read-out: Minimum Inhibitory Concentration
[38] = horse serum 20%, inoculum 10^6, read-out: Minimum Inhibitory Concentration
[39] = horse serum 20%, inoculum 10^8, read-out: Minimum Inhibitory Concentration
[40] = horse serum 40%, inoculum 10^6, read-out: Minimum Inhibitory Concentration
[41] = horse serum 40%, inoculum 10^8, read-out: Minimum Inhibitory Concentration

CC1Cc2c(N3CCNCC3)ccc3c(=O)c(C(=O)O)cn1c23 (centres unmarked) [C]
6.3 µg/mL: MIC [10, 28] | MIC [10, 30] | MIC [10, 32] | MIC [15, 27] | MIC [15, 29]
12.5 µg/mL: MIC [10, 26] | MIC [10, 27] | MIC [10, 29] | MIC [10, 31] | MIC [10, 33]
3.1 µg/mL: MIC ([6]; IFO12180, read-out: Minimum Inhibitory Concentration) | MIC ([8]; IFO12710, read-out: Minimum Inhibitory Concentration, inoculum 10^8) | MIC [14, 27] | MIC [15, 26] | MIC [15, 28] | MIC [15, 30] | MIC [15, 31] | MIC [15, 33]
0.4 µg/mL: MIC [2, 19] | MIC [3, 21] | MIC [4, 23] | MIC [5, 24] | MIC [5, 25] | MIC ([9]; IFO13266, read-out: Minimum Inhibitory Concentration, inoculum 10^8) | MIC [11, 32] | MIC [11, 33] | MIC ([12]; IFO13696, read-out: Minimum Inhibitory Concentration, horse serum 0%, inoculum 10^6) | MIC ([12]; IFO13696, read-out: Minimum Inhibitory Concentration, horse serum 10%, inoculum 10^6) | MIC ([12]; IFO13696, read-out: Minimum Inhibitory Concentration, horse serum 20%, inoculum 10^6) | MIC ([12]; IFO13696, read-out: Minimum Inhibitory Concentration, horse serum 40%, inoculum 10^6) | MIC ([12]; IFO13696, read-out: Minimum Inhibitory Concentration, horse serum 40%, inoculum 10^8) | MIC ([13]; IFO12692, read-out: Minimum Inhibitory Concentration, horse serum 20%, inoculum 10^6) | MIC ([13]; IFO12692, read-out: Minimum Inhibitory Concentration, horse serum 40%, inoculum 10^6) | MIC ([13]; IFO12692, read-out: Minimum Inhibitory Concentration, horse serum 40%, inoculum 10^8) | MIC [14, 32] | MIC [14, 33]
0.2 µg/mL: MIC [2, 18] | MIC [3, 20] | MIC [4, 22] | MIC ([9]; IFO13266, read-out: Minimum Inhibitory Concentration, inoculum 10^6)
0.8 µg/mL: MIC [11, 31] | MIC ([12]; IFO13696, read-out: Minimum Inhibitory Concentration, horse serum 0%, inoculum 10^8) | MIC ([12]; IFO13696, read-out: Minimum Inhibitory Concentration, horse serum 10%, inoculum 10^8) | MIC ([12]; IFO13696, read-out: Minimum Inhibitory Concentration, horse serum 20%, inoculum 10^8) | MIC ([13]; IFO12692, read-out: Minimum Inhibitory Concentration, horse serum 20%, inoculum 10^8)
1.6 µg/mL: MIC [1, 16] | MIC [1, 17] | MIC ([8]; IFO12710, read-out: Minimum Inhibitory Concentration, inoculum 10^6) | MIC [11, 26] | MIC [11, 27] | MIC [11, 28] | MIC [11, 29] | MIC [11, 30] | MIC ([13]; IFO12692, read-out: Minimum Inhibitory Concentration, horse serum 0%, inoculum 10^6) | MIC ([13]; IFO12692, read-out: Minimum Inhibitory Concentration, horse serum 0%, inoculum 10^8) | MIC ([13]; IFO12692, read-out: Minimum Inhibitory Concentration, horse serum 10%, inoculum 10^6) | MIC ([13]; IFO12692, read-out: Minimum Inhibitory Concentration, horse serum 10%, inoculum 10^8) | MIC [14, 26] | MIC [14, 28] | MIC [14, 29] | MIC [14, 30] | MIC [14, 31] | MIC [15, 32]
50 µg/mL: MIC ([7]; IFO12568, read-out: Minimum Inhibitory Concentration, inoculum 10^8)
25 µg/mL: MIC ([7]; IFO12568, read-out: Minimum Inhibitory Concentration, inoculum 10^6)

CCn1cc(C(=O)O)c(=O)c2ccc(C)nc21 [E]
0.2 µg/mL: MIC [3, 20]
50 µg/mL: MIC ([6]; IFO12180, inoculum 10^6, read-out: Minimum Inhibitory Concentration) | MIC ([7]; IFO12568, inoculum 10^6, read-out: Minimum Inhibitory Concentration)
0.587: fraction unbound at 2 h (in vitro; 10% human serum, Inactivation Ratio)
0.528: fraction unbound at 2 h (in vitro; 10% human serum)
0.376: fraction unbound at 2 h (in vitro; 50% human serum)
3.1 µg/mL: MIC [1, 17]
0.387: fraction unbound at 2 h (in vitro; 50% human serum, Inactivation Ratio) | fraction unbound at 2 h (in vitro; 100% human serum, Inactivation Ratio)
> 50 µg/mL: MIC ([6]; IFO12180, inoculum 10^8, read-out: Minimum Inhibitory Concentration) | MIC ([7]; IFO12568, inoculum 10^8, read-out: Minimum Inhibitory Concentration)
0.24: fraction unbound at 2 h (in vitro; 100% human serum)
0.565: fraction unbound at 2 h (in vitro; 20% human serum, Inactivation Ratio)
0.608: fraction unbound at 2 h (in vitro; 20% human serum)
1.6 µg/mL: MIC [1, 16] | MIC ([8]; IFO12710, inoculum 10^8, read-out: Minimum Inhibitory Concentration) | MIC ([9]; IFO13266, inoculum 10^8, read-out: Minimum Inhibitory Concentration)
0.8 µg/mL: MIC [2, 18] | MIC [2, 19] | MIC [4, 22] | MIC [4, 23] | MIC [5, 24] | MIC [5, 25] | MIC ([8]; IFO12710, inoculum 10^6, read-out: Minimum Inhibitory Concentration) | MIC ([9]; IFO13266, inoculum 10^6, read-out: Minimum Inhibitory Concentration)
0.4 µg/mL: MIC [3, 21]

CC1CCc2cc(F)cc3c(=O)c(C(=O)O)cn1c23 (centres unmarked) [F]
0.8 µg/mL: MIC [11, 34] | MIC [11, 35] | MIC [11, 36] | MIC [11, 37] | MIC [11, 38] | MIC [11, 39] | MIC ([13]; IFO12692, horse serum 0%, inoculum 10^6, read-out: Minimum Inhibitory Concentration) | MIC ([13]; IFO12692, horse serum 0%, inoculum 10^8, read-out: Minimum Inhibitory Concentration) | MIC ([13]; IFO12692, horse serum 10%, inoculum 10^8, read-out: Minimum Inhibitory Concentration) | MIC ([13]; IFO12692, horse serum 20%, inoculum 10^8, read-out: Minimum Inhibitory Concentration) | MIC [14, 34] | MIC [14, 35] | MIC [14, 36] | MIC [14, 37] | MIC [14, 38] | MIC [14, 39]
6.3 µg/mL: MIC [10, 39]
0.1 µg/mL: MIC ([12]; IFO13696, horse serum 0%, inoculum 10^6, read-out: Minimum Inhibitory Concentration)
1.6 µg/mL: MIC [10, 34] | MIC [10, 35] | MIC [11, 40] | MIC [11, 41] | MIC ([13]; IFO12692, horse serum 20%, inoculum 10^6, read-out: Minimum Inhibitory Concentration) | MIC ([13]; IFO12692, horse serum 40%, inoculum 10^6, read-out: Minimum Inhibitory Concentration) | MIC ([13]; IFO12692, horse serum 40%, inoculum 10^8, read-out: Minimum Inhibitory Concentration) | MIC [14, 40] | MIC [14, 41]
12.5 µg/mL: MIC [10, 40] | MIC [10, 41]
> 50 µg/mL: MIC [15, 37] | MIC [15, 39] | MIC [15, 41]
3.1 µg/mL: MIC [10, 36] | MIC [10, 37] | MIC [10, 38]
0.4 µg/mL: MIC ([1]; Yersinia enterocolitica, 05, inoculum 1 × 10^8 cells/ml, read-out: Minimum Inhibitory Concentration) | MIC ([12]; IFO13696, horse serum 10%, inoculum 10^8, read-out: Minimum Inhibitory Concentration) | MIC ([13]; IFO12692, horse serum 10%, inoculum 10^6, read-out: Minimum Inhibitory Concentration)
50 µg/mL: MIC [15, 34] | MIC [15, 35] | MIC [15, 36] | MIC [15, 38] | MIC [15, 40]
0.2 µg/mL: MIC ([12]; IFO13696, horse serum 0%, inoculum 10^8, read-out: Minimum Inhibitory Concentration) | MIC ([12]; IFO13696, horse serum 10%, inoculum 10^6, read-out: Minimum Inhibitory Concentration) | MIC ([12]; IFO13696, horse serum 20%, inoculum 10^6, read-out: Minimum Inhibitory Concentration) | MIC ([12]; IFO13696, horse serum 20%, inoculum 10^8, read-out: Minimum Inhibitory Concentration) | MIC ([12]; IFO13696, horse serum 40%, inoculum 10^6, read-out: Minimum Inhibitory Concentration) | MIC ([12]; IFO13696, horse serum 40%, inoculum 10^8, read-out: Minimum Inhibitory Concentration)
